Test [1] has as its system S. aureus ATCC 29213. As to the kind of experiment: MIC broth microdilution (NCCLS). The test is classed as cell-based, Staphylococcus aureus. The following applies: Staphylococcus aureus, ATCC29213; S. aureus ATCC 29213; read-out: MIC. For orientation: In broth dilution the organism is exposed to a series of concentrations in liquid medium.
Another test has as its system S. typhimurium ATCC14028. Put plainly: MIC broth microdilution (NCCLS). The following applies: Salmonella enterica; S. typhimurium ATCC14028; read-out: MIC. The test is classed as cell-based, Salmonella typhimurium. The procedure:
(§1) Minimal Inhibitory Concentration (MIC) Determination. Bacteria (primary strain panel, TABLE 1). Susceptibility tests were performed following the recommendations from the National Committee for Clinical Standards (NCCLS). The MICs were determined by a broth microdilution technique using a final volume of 100 μl of cation-adjusted Mueller Hinton Broth (MHBCA) and a bacterial inoculum of 10^5-10^6 Colony Forming Units (CFU)/ml. The inocula were verified and precisely determined by applying 10-μl drops of 10-fold dilutions onto Triptic Soy Agar plates. The CFU were counted after an incubation of 24 h at 35° C. Any experiment showing an inoculum that was more or less than 10^5-10^6 CFU/ml was rejected. Control antibiotics and test compounds were prepared at a concentration equivalent to 2-fold the highest desired final concentration. Compounds were then diluted directly in the 96-well microtiter plates by serial 2-fold dilutions using a multichannel pipette. Microtiter plates were incubated during 24 h at 35° C. and growth was recorded by using a microtiterplate reader at 650 nm as well as by visual observation. The MIC was defined as the lowest concentration of compound yielding no visible growth. […] Fastidious bacteria. The medium used for Listeria monocytogenes, Neisseria meningitidis, and Campylobacter jejuni was MHBCA containing 2% laked horse blood. The medium used for Haemophilus influenzae and Branhamella (Moraxella) catarrhalis was HTM as recommended by the NCCLS. Cultures of these fastidious bacteria were incubated at 35° C. in a 5% CO2 atmosphere. […] The medium used for Bacteroides fragilis was Wilkins Chalgren broth and growth was allowed under an anaerobic atmosphere at 35° C. for 48 hours.

A further test has as its system A. baumannii ATCC 19606. Put plainly: MIC broth microdilution (NCCLS). The following applies: Acinetobacter baumannii, ATCC19606, read-out: MIC. The test is classed as cell-based, Acinetobacter baumannii. An outline of the steps:
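Susceptibility by NCCLS microdilution: checked inoculum 10^5-10^6 CFU/ml, 24 h at 35° C, and growth assessed at 650 nm and by eye. Haemophilus was tested in HTM medium and Listeria with laked horse blood, each incubated under 5% CO2.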

The next test relates to M. smegmatis ATCC 19420. As to the kind of experiment: MIC broth microdilution (NCCLS), fastidious bacteria. The test is classed as cell-based, Mycobacterium smegmatis. The conditions noted are these: Mycolicibacterium smegmatis, ATCC19420, read after 48 hours. The protocol:
as §1

A further test has as its system B. fragilis ATCC 25285. As to the kind of experiment: MIC broth microdilution (NCCLS), anaerobic. In kind it is cell-based. The conditions noted are these: Bacteroides fragilis, ATCC25285; B. fragilis ATCC 25285; Wilkins Chalgren broth, anaerobic, 48 hours; read-out: MIC. The protocol:
as §1

Test [2] relates to E. coli ATCC 35150 (O157:H7). Put plainly: MIC broth microdilution, E. coli strains. The test is classed as cell-based. The following applies: Escherichia coli, ATCC35150. The procedure: as §1
(§2) Finally, compounds were also tested against populations of various clinical strains (antibiotic resistant strain panel, TABLE 1).

The subject of the next test is E. coli Ec022c (EIEC). Put plainly: MIC broth microdilution, E. coli strains. The conditions noted are these: Escherichia coli, pathotype EIEC. The test is classed as cell-based. The protocol: as §1, §2
In a further test the test system is E. coli Ec027c (EIEC). As to the kind of experiment: MIC broth microdilution, E. coli strains. The test is classed as cell-based. The conditions noted are these: Escherichia coli, pathotype EIEC. The procedure: as §1, §2
In the next test the test system is E. coli Ec117c (EIEC). Put plainly: MIC broth microdilution, E. coli strains. The following applies: Escherichia coli, pathotype EIEC. The test is classed as cell-based. The protocol:
as §1, §2

The next test relates to E. coli Ec118c (EIEC). As to the kind of experiment: MIC broth microdilution, E. coli strains. In kind it is cell-based. The conditions noted are these: Escherichia coli, pathotype EIEC. The protocol: as §1, §2
Another test deals with E. coli Ec119c (EIEC). As to the kind of experiment: MIC broth microdilution, E. coli strains. The test is classed as cell-based. The conditions noted are these: Escherichia coli, pathotype EIEC. The procedure:
as §1, §2

Test [3] deals with E. coli d25-ALR-pen14 (O157:H7). Put plainly: MIC broth microdilution, E. coli strains. The test is classed as cell-based. The following applies: Escherichia coli. The protocol:
as §1, §2

Test [4] concerns E. coli d4-OLR-pen10 (O157:H7). As to the kind of experiment: MIC broth microdilution, E. coli strains. The following applies: Escherichia coli. In kind it is cell-based. The protocol: as §1, §2
For a further test, the system named is E. coli ATCC 25922. As to the kind of experiment: Minimal Bactericidal Concentration (MBC). In kind it is cell-based. The conditions noted are these: Escherichia coli, ATCC25922, 99.9% killing. The procedure, abridged:
(§3)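 Wells lacking visible growth in the MIC plates are sampled, at least 5 per series, and spread onto TSA. The dishes are kept at 35° C. for exactly 24 h, then bacterial colonies are enumerated.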

The next test deals with E. faecalis ATCC 29212. Put plainly: Minimal Bactericidal Concentration (MBC). In kind it is cell-based. The conditions noted are these: Enterococcus faecalis, ATCC29212, 99.9% killing. The procedure, abridged: as §3
Another test has as its system E. faecium ATCC 35667. Put plainly: Minimal Bactericidal Concentration (MBC). The test is classed as cell-based. The conditions noted are these: Enterococcus faecium, ATCC35667, 99.9% killing. The procedure, abridged: as §3
For the next test, the system named is H. influenzae ATCC 49247. Put plainly: Minimal Bactericidal Concentration (MBC). In kind it is cell-based. The conditions noted are these: Haemophilus influenzae, ATCC49247, 99.9% killing. The procedure, abridged: as §3
For the next test, the system named is H. influenzae ATCC 49766. As to the kind of experiment: Minimal Bactericidal Concentration (MBC). In kind it is cell-based. The following applies: Haemophilus influenzae, ATCC49766, 99.9% killing. An outline of the steps: as §3
The subject of test [5] is S. aureus ATCC 29213. As to the kind of experiment: Minimal Bactericidal Concentration (MBC). In kind it is cell-based. The conditions noted are these: Staphylococcus aureus, ATCC29213, 99.9% killing. An outline of the steps:
as §3

The next test deals with S. aureus MRSA COL. Put plainly: Minimal Bactericidal Concentration (MBC). The following applies: Staphylococcus aureus, 99.9% killing. In kind it is cell-based. The procedure, abridged:
as §3

The subject of test [6] is S. epidermidis ATCC 12228. Put plainly: Minimal Bactericidal Concentration (MBC). The test is classed as cell-based. The following applies: Staphylococcus epidermidis, ATCC12228, 99.9% killing. An outline of the steps: as §3
Test [7] has as its system S. saprophyticus ATCC 15305. As to the kind of experiment: Minimal Bactericidal Concentration (MBC). In kind it is cell-based. The following applies: Staphylococcus saprophyticus, ATCC15305; S. saprophyticus ATCC 15305; 99.9% killing; read-out: MBC. The procedure, abridged:
as §3

In test [8] the test system is bacteria of the primary strain panel. Put plainly: MBCs compared with MICs over the strain panels. In kind it is cell-based. The following applies: most of the time, over tested strains. The protocol:
Minimal Inhibitory Concentration (MIC) Determination. Bacteria (primary strain panel, TABLE 1). Susceptibility tests were performed following the recommendations from the National Committee for Clinical Standards (NCCLS). The MICs were determined by a broth microdilution technique using a final volume of 100 μl of cation-adjusted Mueller Hinton Broth (MHBCA) and a bacterial inoculum of 10^5-10^6 Colony Forming Units (CFU)/ml. The inocula were verified and precisely determined by applying 10-μl drops of 10-fold dilutions onto Triptic Soy Agar plates. The CFU were counted after an incubation of 24 h at 35° C. Any experiment showing an inoculum that was more or less than 10^5-10^6 CFU/ml was rejected. Control antibiotics and test compounds were prepared at a concentration equivalent to 2-fold the highest desired final concentration. […] Microtiter plates were incubated during 24 h at 35° C. and growth was recorded by using a microtiterplate reader at 650 nm as well as by visual observation. […]
Minimal Bactericidal Concentration (MBC). After the microtiter plates were read for the determination of the MIC, a 10-μl sample of each clear well (at least 5 wells without visible growth) was applied onto TSA plates for viable counts determination.
Petri dishes were incubated at 35° C. for exactly 24 h and bacterial colonies were counted.

≈ marks a conversion by molar mass, not a printed value.

`O=[N+]([O-])c1ccc(C=Cc2nc(Nc3ccc(O)cc3)c3cc(F)ccc3n2)o1` [Compound V, 6-fluoro-2-[2-(5-nitro-2-furyl)vinyl]-4-(p-hydroxyanilino)-quinazoline]: the minimal inhibitory concentration (MIC) with S. aureus ATCC 29213 [1] was 0.03 to 0.06 µg/mL (≈ 0.0765 to 0.153 µM); in the test on S. typhimurium ATCC14028, 1 µg/mL (≈ 2.55 µM); in the test on A. baumannii ATCC 19606, 1 to 2 µg/mL (≈ 2.55 to 5.1 µM); in the test on M. smegmatis ATCC 19420 it was 0.06 µg/mL (≈ 0.153 µM); with B. fragilis ATCC 25285, 0.016 µg/mL (≈ 0.0408 µM); in test [2], 1 µg/mL (≈ 2.55 µM). The MIC with E. coli Ec022c (EIEC) was found to be 1 µg/mL (≈ 2.55 µM); in the test on E. coli Ec027c (EIEC), 1 µg/mL (≈ 2.55 µM); against E. coli Ec117c (EIEC), 1 µg/mL (≈ 2.55 µM); against E. coli Ec118c (EIEC) it was 1 µg/mL (≈ 2.55 µM); against E. coli Ec119c (EIEC) it was 2 µg/mL (≈ 5.1 µM); in [3], 1 µg/mL (≈ 2.55 µM). For the same compound, the minimum inhibitory concentration (MIC) in test [4] was determined as 1 µg/mL (≈ 2.55 µM). The MBC amounted to 0.5 µg/mL (≈ 1.27 µM) against E. coli ATCC 25922; 0.03 µg/mL (≈ 0.0765 µM) in the test on E. faecalis ATCC 29212; 0.25 µg/mL (≈ 0.637 µM) against E. faecium ATCC 35667; 0.06 µg/mL (≈ 0.153 µM) against H. influenzae ATCC 49247; 0.06 µg/mL (≈ 0.153 µM) in the test with H. influenzae ATCC 49766; 0.06 µg/mL (≈ 0.153 µM) against S. aureus ATCC 29213 [5]. For the same compound, the MBC against S. aureus MRSA COL is 0.06 µg/mL (≈ 0.153 µM); in test [6], 0.03 µg/mL (≈ 0.0765 µM); in test [7], 0.03 to 0.06 µg/mL (≈ 0.0765 to 0.153 µM). Besides, in [8], the “MBCs relative to the MICs” value was “equal to or only 2 to 4-fold higher than the MICs”.
Regarding `O=C1CN(/N=C/c2ccc([N+](=O)[O-])o2)C(=O)N1` [Nitrofurantoin], the MIC in the test on S. aureus ATCC 29213 [1] worked out at 16 µg/mL (≈ 67.2 µM); in the test with S. typhimurium ATCC14028 it was 32 µg/mL (≈ 134 µM); with A. baumannii ATCC 19606, 128 µg/mL (≈ 537 µM); with M. smegmatis ATCC 19420, 64 µg/mL (≈ 269 µM); in test [2], 2 µg/mL (≈ 8.4 µM); with E. coli Ec022c (EIEC) it was 16 µg/mL (≈ 67.2 µM). Further, the MIC against E. coli Ec027c (EIEC) was 16 µg/mL (≈ 67.2 µM); in the test with E. coli Ec117c (EIEC), 8 to 16 µg/mL (≈ 33.6 to 67.2 µM); against E. coli Ec118c (EIEC) it was 16 µg/mL (≈ 67.2 µM); against E. coli Ec119c (EIEC) it was 16 µg/mL (≈ 67.2 µM); in test [3], 16 µg/mL (≈ 67.2 µM); in test [4] it was 16 µg/mL (≈ 67.2 µM).

Usually MIC stands for the smallest concentration in the dilution series that meets the test's criterion for growth inhibition.

The values above are taken from patent US7410974B2, “Halogenated Quinazolinyl nitrofurans as antibacterial agents” (Ulysses Pharmaceutical Products, Inc., priority 2003, dated 2008).
